Source: patent US10017574B2, “Methods, kits and devices for promoting cardiac regeneration” (Yeda Research and Development Co. Ltd., priority 2015, dated 2018)
Entries after “also recorded” stand apart in the source; their conditions may differ.

B1: Periostin (protein, UniProt Q15063 22-836, looked up)
Periostin: NNHYDKILAHSRIRGRDQGPNVCALQQILGTKKKYFSTCKNWYKKSICGQKTTVLYECCPGYMRMEGMKGCPAVLPIDHVYGTLGIVGATTTQRYSDASKLREEIEGKGSFTYFAPSNEAWDNLDSDIRRGLESNVNVELLNALHSHMINKRMLTKDLKNGMIIPSMYNNLGLFINHYPNGVVTVNCARIIHGNQIATNGVVHVIDRVLTQIGTSIQDFIEAEDDLSSFRAAAITSDILEALGRDGHFTLFAPTNEAFEKLPRGVLERIMGDKVASEALMKYHILNTLQCSESIMGGAVFETLEGNTIEIGCDGDSITVNGIKMVNKKDIVTNNGVIHLIDQVLIPDSAKQVIELAGKQQTTFTDLVAQLGLASALRPDGEYTLLAPVNNAFSDDTLSMDQRLLKLILQNHILKVKVGLNELYNGQILETIGGKQLRVFVYRTAVCIENSCMEKGSKQGRNGAIHIFREIIKPAEKSLHEKLKQDKRFSTFLSLLEAADLKELLTQPGDWTLFVPTNDAFKGMTSEEKEILIRDKNALQNIILYHLTPGVFIGKGFEPGVTNILKTTQGSKIFLKEVNDTLLVNELKSKESDIMTTNGVIHVVDKLLYPADTPVGNDQLLEILNKLIKYIQIKFVRGSTFKEIPVTVYTTKIITKVVEPKIKVIEGSLQPIIKTEGPTLTKVKIEGEPEFRLIKEGETITEVIHGEPIIKKYTKIIDGVPVEITEKETREERIITGPEIKYTRISTGGGETEETLKKLLQEEVTKVTKFIEGGDGHLFEDEEIKRLLQGDTPVRKLQANKKVQGSRRRLREGRSQ
notes: Periostin protein (500 ng/ml; BioVendor)

Key:
caErbb2 CMs [1] = assay: Cell-cycle re-entry (Ki67) of P7 caErbb2 CMs treated in vitro with inhibitors or factors; type: cell-based, mouse; conditions: P7 neonatal caErbb2 heart cells, treated in vitro for 2 days
Excerpt: (§1) Doxycycline inducible CM restricted overexpression of a constitutively active Erbb2 (caErbb2) was generated by crossing TetRE-caErbb2 mouse line^65 (a B6SJLF1/J transgenic line in which this mutated Erbb2 is placed under the control of a minimal CMV promoter and the tetracycline-responsive element) with αMHC-tTA^66, which expresses the tetracycline-responsive transcriptional activator (tTA) under the control of the human alpha myosin heavy chain promoter (αMHC) promoter (see FIG. 10A). αMHC-tTA strain was created in the FVB background and then the line was backcrossed to C57BL/6. Doxycycline (DOX, Harlan Laboratories) was administered in the food to repress transgene expression.
(§2) Primary cardiomyocytes were isolated from 1-day-old (P1) and 7-days-old (P7) mice using a neonatal dissociation kit (gentleMACS, Germany), according to the manufacturer's instructions, and cultured in gelatin-coated (0.1%, G1393, Sigma, St. Louis, Mo., USA) wells with DMEM/F12 medium supplemented with L-glutamine, Na-pyruvate, Non-essential amino acids, penicillin, streptomycin, 5% Horse serum and 10% FBS (hereafter referred to as “complete-medium”) at 37° C. and 5% CO2.
(§3) In cultures isolated from hearts of P7 ctrl and caErbb2-cOE animals, the cells were seeded in the aforementioned complete-medium for 48 hours, in the presence of the following substances: MEK/MAPKK kinase inhibitor regarded in the text as ERK inhibitor (2 μM, PD0325901, Tocris Bioscience, Bristol, UK), AKT1/2 inhibitor (5 μM, AKT inhibitor VIII, ApexBio, Houston, Tex., USA), GSK3β inhibitor (10 μM, CHIR-99021, Axon Medchem, Netherlands), β-Catenin inhibitor (10 μM, IWR-1, Sigma, St. Louis, Mo., USA), p38 inhibitor (10 μM SB202190, Merck Millipore, Massachusetts, USA), Periostin (500 ng/ml; BioVendor, Brno Czech Republic), FGF1 (100 ng/ml; R&D Systems, MN, USA). The dissolving reagents were added to unstimulated samples. Subsequently, cells were fixed in 4% PFA and stained for markers of interest.
(§4) Heart sections underwent deparaffinization, fixation in 4% PFA (5 minutes) and microwave antigen retrieval in EDTA or citric acid buffer, followed by gradual chilling. Then heart sections and cultured cells were processed in the following manner. Samples were permeabilized with 0.5% Triton X-100 in PBS for 5 minutes and blocked with 5% bovine serum albumin (BSA, Sigma, St. Louis, Mo., USA) in PBS containing 0.1% Triton for 1 hour at room temperature. Then samples were incubated 1 hour at room temperature or overnight at 4° C. with the following antibodies diluted in 3% BSA blocking solution: anti-Troponin T (1:200, ab33589, Abcam, Cambridge, Mass., USA), anti-Troponin I (1:200, ab47003, Abcam, Cambridge, Mass., USA) or anti-NKX2.5 (1:200, ab35842, Abeam, Cambridge, Mass., USA) Abs were used to identify CMs. Anti-Ki67 antibody (1:200, 275R, Cell Marque, Austin, Tex., USA) anti-BRDU antibody (1:100, G3G4, DSHB, Iowa City, Iowa, USA), anti-phosphorylated-Histone3 (pH3) antibody (1:200, SC-8656-R, Santa Cruz Biotechnology Inc., Santa Cruz, Calif., USA) and anti-Aurora B (1:100, 611082, BD Transduction Laboratories, Lexington, Ky., USA) were used to analyze cell cycle re-entry, DNA synthesis, karyokinesis and cytokinesis, respectively. Other Abs used in the study: anti-ErbB2 (1:50, sc-284, Santa Cruz Biotechnology Inc., Santa Cruz, Calif., USA), anti-αSMA (1:50, A5691, Sigma, St. Louis, Mo., USA), RUNX1 (1:200, ab92336, Abcam, Cambridge, Mass., USA), anti-DAB2 (1:200, sc-13982, Santa Cruz Biotechnology Inc., Santa Cruz, Calif., USA), anti-β-Catenin (1:200, ab32572, Abcam, Cambridge, Mass., USA). After three washes with PBS, 10 minutes each, samples were stained for 1 hour at room temperature or overnight at 4° C. with fluorescent secondary antibodies (Abeam, Cambridge, Mass., USA) followed by 10 minutes of DAPI (4,6-diamidino-2-phenylindole dihydrochloride) staining for nuclei visualization. […]

caErbb2 CMs [2] = assay: Dedifferentiation (RUNX1 expression, sarcomeric disassembly) of P7 caErbb2 CMs treated in vitro with inhibitors or factors; type: cell-based, mouse; conditions: P7 neonatal caErbb2 heart cells, treated in vitro for 2 days
Excerpt: as §1, §2, §3, §4

caErbb2 CMs [3] = assay: Hypertrophy (cell area) of P7 caErbb2 CMs treated in vitro with inhibitors or factors; type: cell-based, mouse; conditions: P7 neonatal caErbb2 heart cells, treated in vitro for 2 days
Excerpt: as §1, §2, §3, §4

β-Catenin in caErbb2 CMs = assay: β-Catenin immunofluorescence in P7 caErbb2 heart cells treated in vitro with inhibitors; type: cell-based, mouse; conditions: P7 neonatal caErbb2 heart cells, 10 μM
Excerpt: as §1
Primary cardiomyocytes were isolated from 1-day-old (P1) and 7-days-old (P7) mice using a neonatal dissociation kit (gentleMACS, Germany), according to the manufacturer's instructions, and cultured in gelatin-coated (0.1%, G1393, Sigma, St. Louis, Mo., USA) wells with DMEM/F12 medium supplemented with L-glutamine, Na-pyruvate, Non-essential amino acids, penicillin, streptomycin, 5% Horse serum and 10% FBS (hereafter referred to as “complete-medium”) at 37° C. and 5% CO2. […]

P1 and P7 mouse CMs = assay: NRG1-stimulated proliferation of cultured P1 and P7 cardiomyocytes (Ki67, BrdU, pH3, AuroraB immunofluorescence, counting newly formed CMs); type: cell-based; conditions: various NRG1 doses, 72 hours
Procedure: as §2
In experiments involving administration of Neuregulin-1b (NRG1, R&D Systems, MN, USA), the cells were allowed to adhere for 48 hours in complete-medium. Subsequently, the medium was replaced with an FBS-deprived complete-medium containing the indicated NRG1 doses for 72 hours. BrdU (10 μM, B5002, Sigma, St. Louis, Mo., USA) was introduced along with NRG1. Cells were fixed in 4% PFA and stained for markers of interest.
(§5) Heart sections underwent deparaffinization, fixation in 4% PFA (5 minutes) and microwave antigen retrieval in EDTA or citric acid buffer, followed by gradual chilling. […] Slides were mounted with Immu-mount (9990412, Thermo scientific, MA, USA) and viewed under a fluorescence microscope (Nikon Intensilight or Nikon eclipse 90i, Nikon, Düsseldorf, Germany) or spinning disk confocal microscope (Carl Zeiss, Thornwood, N.Y., USA) as specified in the figure legends.

neonatal Erbb2-cKO CMs = assay: NRG1-stimulated proliferation of cultured CMs from P1 Erbb2-cKO mice (Ki67, pH3, newly formed CMs); type: cell-based, mouse; conditions: CMs isolated from P1 Erbb2-cKO mice, NRG1 in vitro
Excerpt: CM-restricted deletion of Erbb2 (Erbb2-cKO) was generated by crossing Erbb2^flox/flox 41 to Erbb2^lacZ/+; αMHC-Cre mice (see FIG. 2A). The Erbb2^lacZ/+ mice used in this study carry an allele that encodes a nonfunctional ErbB2-galactosidase fusion protein lacking the tyrosine kinase domain^42. In some experiments, addition of ROSA26-tdTomato allele to this system has been used to label cardiac muscle cell lineage in Erbb2-cKO mice. Erbb2^flox/flox and Erbb2^lacZ/+ mice were maintained on a C57BL/6 background. […]
as §5

Row | Molecule | caErbB2-induced CM proliferation / cell cycle re-entry (Ki67) (caErbb2 CMs [1]) | caErbB2-induced CM dedifferentiation (sarcomeric disassembly and RUNX1 expression) (caErbb2 CMs [2]) | caErbB2-induced hypertrophic response (CM cell area) (caErbb2 CMs [3]) | RUNX1 expression in caErbb2 CMs (caErbb2 CMs [2]) | β-Catenin accumulation in caErbb2 CMs (β-Catenin in caErbb2 CMs) | CM proliferation (cell cycle activity, DNA synthesis, mitosis, cytokinesis, newly formed CMs) (P1 and P7 mouse CMs; P1 mouse CMs in vitro) | CM proliferation (cell cycle activity, DNA synthesis, mitosis, cytokinesis, newly formed CMs) (P1 and P7 mouse CMs; P7 mouse CMs in vitro) | CM proliferation (Ki67, pH3, newly formed CMs) (neonatal Erbb2-cKO CMs)
1 | O=c1[nH]c2ccccc2n1C1CCN(Cc2ccc(-c3nc4cc5[nH]cnc5cc4nc3-c3ccccc3)cc2)CC1 [AKT inhibitor, AKT inhibitor VIII] | moderate effect | promoted massive dedifferentiation | reduced hypertrophic response |  |  |  |  | 
2 | O=C(NOC[C@H](O)CO)c1ccc(F)c(F)c1Nc1ccc(I)cc1F [ERK inhibitor, PD0325901] | completely suppressed | completely suppressed | reduced the hypertrophic response |  |  |  |  | 
3 | Cc1c[nH]c(-c2cnc(NCCNc3ccc(C#N)cn3)nc2-c2ccc(Cl)cc2Cl)n1 [GSK3β inhibitor, CHIR-99021] | promoted β-Catenin independent increase in cell cycle activity |  |  | further increased | further increased |  |  | 
4 | Oc1ccc(-c2nc(-c3ccncc3)c(-c3ccc(F)cc3)[nH]2)cc1 [p38 inhibitor, SB202190] | enhanced |  | No obvious effects | increased |  |  |  | 
5 | O=C(Nc1cccc2cccnc12)c1ccc(N2C(=O)[C@@H]3[C@H](C2=O)[C@@H]2C=C[C@H]3C2)cc1 [β-Catenin inhibitor, IWR-1] | without significantly affecting |  | without significantly affecting | reduced |  |  |  | 
6 | FGF1 | enhanced |  | No obvious effects | p38 inhibition, in contrast to FGF1 and Periostin, increased RUNX1 expression |  |  |  | 
7 | Neuregulin-1b [NRG1] |  |  |  |  |  | dose-dependent increase | profoundly reduced effects; also recorded: diminished | unable to induce CM proliferation
8 | B1 | enhanced |  | No obvious effects | p38 inhibition, in contrast to FGF1 and Periostin, increased RUNX1 expression |  |  |  | 
